Assay results: patent US20060079461A1, “Treatment of multiple myeloma by inhibition of p38 MAP kinase” (Scios, Inc., priority 2003, published 2006)

Assays:
VEGF = VEGF secretion from MM contact-activated BMSC; format: cell-based, human
Text: (§1) p38 MAPK controls secretion of these factors in-vitro in systems representing the BM milieu.

Hsp27 = experiment: Total Hsp27 levels in MM cells; format: cell-based, human; conditions: even after prolonged incubation
Procedure: (§2) Total cell lysates are immunoprecipitated with anti-MAPKAPK-2 antibody and subjected to in vitro kinase assays using purified GST-Hsp27 as substrate. To examine Hsp27 phosphorylation in MM and transformed B cells, U266, IM9 and RPMI8226 cells are incubated either with DMSO or with 0.5 μM of a p38 MAPK inhibitor and cell lysates are immunoblotted with antibodies to phospho-Hsp27 (Ser 82) and Hsp27.

COX-2 mRNA = experiment: LPS-induced COX-2 mRNA; format: cell-based
purified COX-2 enzyme = target: T1, purified COX-2 enzyme (Homo sapiens, UniProt P35354); experiment: Purified COX-2 enzyme activity; format: biochemical
T1 sequence (P35354 18-604): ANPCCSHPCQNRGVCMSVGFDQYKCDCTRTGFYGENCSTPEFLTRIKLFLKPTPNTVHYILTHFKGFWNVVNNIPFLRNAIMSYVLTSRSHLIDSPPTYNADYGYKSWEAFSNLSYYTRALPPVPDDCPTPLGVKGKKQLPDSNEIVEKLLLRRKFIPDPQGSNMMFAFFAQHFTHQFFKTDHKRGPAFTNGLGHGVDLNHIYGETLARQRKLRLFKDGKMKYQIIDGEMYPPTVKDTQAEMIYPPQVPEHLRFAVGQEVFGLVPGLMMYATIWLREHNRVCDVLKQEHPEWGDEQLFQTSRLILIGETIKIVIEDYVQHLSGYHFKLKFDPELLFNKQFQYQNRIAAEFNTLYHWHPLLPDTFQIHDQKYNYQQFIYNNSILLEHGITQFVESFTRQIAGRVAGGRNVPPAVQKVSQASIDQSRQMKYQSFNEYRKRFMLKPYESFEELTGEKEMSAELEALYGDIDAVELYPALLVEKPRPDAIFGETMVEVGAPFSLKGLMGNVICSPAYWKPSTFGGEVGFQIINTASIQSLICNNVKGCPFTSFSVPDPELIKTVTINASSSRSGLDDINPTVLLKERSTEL

multiple myeloma = experiment: Treatment of a patient with multiple myeloma; format: in vivo, human
Text: A patient is diagnosed with multiple myeloma. The patient presents with MM cells with rapid growth rates, which displace osteoblasts, and disrupting the balance of bone creation and destruction. A number of MM-related cytokines, such as IL-6, VEGF, IL-11, and PGE-2 are detectable. […] MM cell growth is inhibited and MM-related cytokine product is reduced.

MAPKAPK-2 = MAPKAPK-2 in vitro kinase assay with GST-Hsp27 substrate; format: cell-based, human
Procedure: as §2

IL-11 [1] = experiment: IL-1 and TGFβ induction of IL-11 in BMSC cultures; format: cell-based, human; conditions: 100 nM
Text: as §1

HSP-27 [2] = experiment: HSP-27 phosphorylation in BMSC; format: cell-based, human
TNF-α = experiment: LPS-induced TNF-α secretion in whole blood; format: cell-based, human
Procedure: Other in vitro assays can assess the production of TNF-α as a correlation to p38 MAP kinase activity. One such example is a Human Whole Blood Assay. In this assay, venous blood is collected from, e.g., healthy male volunteers into a heparinized syringe and is used within 2 hours of collection. Test compounds are dissolved in 100% DMSO and 1 μl aliquots of drug concentrations ranging from 0 to 1 mM are dispensed into quadruplicate wells of a 24-well microtiter plate (Nunclon Delta SI, Applied Scientific Co., San Francisco, Calif.). Whole blood is added at a volume of 1 ml/well and the mixture is incubated for 15 minutes with constant shaking (Titer Plate Shaker, Lab-Line Instruments, Inc., Melrose Park, Ill.) at a humidified atmosphere of 5% CO2 at 37° C. Whole blood is cultured either undiluted or at a final dilution of 1:10 with RPMI 1640 (Gibco 31800+NaHCO3, Life Technologies, Rockville, Md. and Scios, Inc., Sunnyvale, Calif.). At the end of the incubation period, 10 μl of LPS (E. coli 01111:B4, Sigma Chemical Co., St. Louis, Mo.) is added to each well to a final concentration of 1 or 0.1 μg/ml for undiluted or 1:10 diluted whole blood, respectively. The incubation is continued for an additional 2 hours. The reaction is stopped by placing the microtiter plates in an ice bath, and plasma or cell-free supernates are collected by centrifugation at 3000 rpm for 10 minutes at 4° C. […]

[3] = test system: human myeloma (RPMI8266) tumor; experiment: Beige-nude-xid mouse xenograft plasmacytoma model; format: in vivo
Text: Human-multiple myeloma (MM) is an incurable neoplasm of terminally differentiated B cells and MM disease progression is affected by immunoregulatory elements such as IL-6 and other cytokines. […]

MKK3 and MKK6 = experiment: Activation of p38 MAPK by upstream kinases
[4] = test system: MM cell lines (U266B, RPMI, ARH-77, and IM9); experiment: MM cell proliferation; format: cell-based, human; conditions: 72-hour exposure; each of four MM cell lines (U266B, RPMI, ARH-77, IM9)
BMSC = BMSC viability, MTS assay; format: cell-based, human; conditions: tested up to 50-fold excess of active concentration
Procedure: Neither p38 MAPK inhibition nor high concentrations of p38 MAPK inhibitor (tested up to 50-fold excess of active concentration) affected BMSC viability (FIG. 4). Viability was measured using a standard enzymatic assay of respiratory activity, MTS (3-(4,5-dimethylthiazol-2-yl)-5-(3-carboxymethoxyphenyl)-2-(4-sulfophenyl)-2H-tetrazolium). Results obtained with the p38 MAPK inhibitor are in agreement with published results using a different p38α MAPK inhibitor.

IL-1β = experiment: LPS-induced IL-1β release in human whole blood; format: cell-based; conditions: human whole blood (undiluted)
Text: IL-1β illustrates the importance of amplification loops in myeloma-induced cytokine stimulation. IL-1, plays a well-documented role in the induction of multiple cytokines in a “cytokine network” of feedback loops, including strong induction of IL-6. The ability of IL-1 to increase mRNA expression and induce secretion of the MM-relevant cytokines from MM/BMSC cultures is evidence of this role.

PGE2 = PGE2 levels in LPS-induced human whole blood; format: cell-based
HSP-27 [5] = experiment: HSP-27 phosphorylation in MM cells (p38 MAPK activity); format: cell-based, human
Procedure: as §2
In additional experiments, the p38 MAPK inhibitors are tested for their ability to inhibit Hsp27 phosphorylation. U266, IM9 and RPMI8226 cells are incubated with 0.5 μM of the p38 MAPK inhibitor for 1 hour and Hsp27 proteins are immunoprecipitated with agarose-conjugated Hsp27 antibody, followed by immunoblotting with anti-phospho Hsp27 (Ser 78) antibody.
Specific antibodies to p38 MAP kinase are from Santa Cruz Biotechnology (Santa Cruz, Calif.). Antibodies to phospho-p38 MAP kinase (T180/Y182) and phospho-Hsp27 (S82) are from Cell Signaling (Beverly, Mass.). Antibodies to Hsp27 and phospho-Hsp27 (S78) are from Upstate Biotechnology (Lake Placid, N.Y.). Anti-MAPKAPK-2 is from StressGen (San Diego, Calif.) while anti-GAPDH is from Biogenesis Ltd. (Poole, UK).

MM cells = experiment: MM cell viability and proliferation with SN-50 co-exposure; format: cell-based; conditions: co-exposure with SN-50
Text: SN-50 is a cell-permeable specific inhibitor of NF-kappaB nuclear translocation and activity. Nuclear factor-kappaB has been reported to confer significant survival potential in a variety of tumors, including MM cells.

IL-11 [6] = experiment: IL-1 and TGFβ induction of IL-11 in MM/BMSC cultures; format: cell-based, human; conditions: 100 nM
Text: as §1

[7] = in combination with an apoptosis promoting agent

COC(=O)C(=O)c1cn(C(=O)c2ccc(Cl)cc2)c2cc(OC)c(C(=O)N3CCC(Cc4ccccc4)CC3)cc12 [Compound 4]
VEGF secretion (VEGF): inhibited

C[C@@H]1CN(Cc2ccc(F)cc2)[C@@H](C)CN1C(=O)c1cc2c(C(=O)C(=O)N(C)C)cn(C)c2cc1Cl [Compound 57]
total Hsp27 levels (Hsp27): does not affect | LPS-induced COX-2 mRNA (COX-2 mRNA): inhibited | activity of the purified COX-2 enzyme (purified COX-2 enzyme): did not directly inhibit | MM cell growth (multiple myeloma; [7]): inhibited | MM-related cytokine product (multiple myeloma; [7]): reduced | MM cell growth (multiple myeloma; therapeutic amount, alone): inhibited | MM-related cytokine product (multiple myeloma; therapeutic amount, alone): reduced | activity of downstream substrate MAPKAPK-2 (MAPKAPK-2): suppresses | IL-1 and TGFβ induction of IL-11 at the mRNA and protein levels (IL-11 [1]): blocked | phosphorylation of HSP-27 (HSP-27 [2]): blocked phosphorylation of HSP-27 completely | LPS-induced TNF-α secretion (TNF-α): dose-dependent reduction | tumor volume, histological assessment ([3]; at the end of dosing, versus vehicle): significant reduction | number of neoformed microvessels ([3]; histological assessment at the end of dosing): significant reduction | HSP27 expression in tumor cells ([3]; mouse, in vivo): significantly reduces | p38 expression in tumor cells ([3]; mouse, in vivo): significantly reduces | tumor volume ([3]; palpable tumors (~200 mm^3), 90 mg/kg/bid oral gavage, 21 days): significantly reduces | tumor volume ([3]; treatment initiated at pronounced tumor size (~800 mm^3)): significant reduction | direct activation of the p38 MAPK enzyme or activity of kinases upstream of p38 MAPK (MKK3 and MKK6): not the direct activation of the p38 MAPK enzyme or the activity of kinases upstream of p38 MAPK | reduction in proliferation [4]: about 20% | BMSC viability (BMSC): Neither p38α MAPK inhibition nor high concentrations of Compound 57 (tested up to 50-fold excess of active concentration) affected BMSC viability | LPS-induced IL-1β release (IL-1β): dose-dependent reduction | PGE2 levels (PGE2): reduced | phosphorylation of HSP-27 (HSP-27 [5]; MM cells): blocked phosphorylation of HSP-27 completely | Hsp27 phosphorylation (HSP-27 [5]; U266, IM9, RPMI8226, cell lysates or immunoprecipitation assays, 0.5 μM): inhibits | p38 MAPK activity (HSP-27 [5]; immunodetection of p38 MAPK kinase target HSP-27): fully suppressed | reduction of MM cell viability and proliferation caused by SN-50-induced NFκB inhibition (MM cells): enhances the reduction of MM cell viability and proliferation | IL-1 and TGFβ induction of IL-11 at the mRNA and protein levels (IL-11 [6]): blocked
